Data from patent US20230234938A1 (RHIZEN PHARMACEUTICALS AG, priority 2020, published 2023).

Legend:
PARP1 = PARP1 (Homo sapiens, UniProt P09874); assay: PARP enzyme assay (PARP1, chemiluminescent histone ribosylation); conditions: for inhibition at 0.01 µM: read-out: % inhibition 10 nM; for inhibition at 0.1 µM: read-out: % inhibition 100 nM; for % inhibition 10 nM / % inhibition 100 nM: PARP enzyme assay; for % inhibition 10 nM: 10 nM compound, 0.01 µM; for % inhibition 100 nM: 100 nM compound, 0.1 µM
Procedure: 1) Coat 25 µL of histone solution onto a 384-well plate as described below: • Dilute 5x histone mixture 1:5 with PBS. • Add 25 µL of diluted histone solution to each well and incubate at 4° C. overnight. • Wash the plate three times using 100 µL PBST buffer (1x PBS containing 0.05% Tween20) per well. • Tap plate onto clean paper towel to remove liquid. • Block the wells by adding 100 µL of Blocking buffer 3 to every well. Incubate at room temperature for 1 h 15 minutes. • Wash plate three times with 100 µL PBST buffer as described above. • Tap plate onto clean paper towel to remove liquid.
1) Preparation of 1X PARP Buffer: • Prepare 1x PARP buffer by adding 1 part of 10x PARP buffer to 9 parts distilled water (v/v). To prepare 500 µL of 1X PARP buffer, add 50 µL 10X PARP Assay buffer to 450 µL of H2O and mix well.
2) Preparation of the Ribosylation master mixture: • N wells x (1.25 µL 10x PARP buffer + 1.25 µL 10X PARP Assay mixture + 2.5 µL Activated DNA + 7.5 µL distilled water). Add 12.5 µL to every well.
3) Preparation of the inhibitor solution: • 10 mM stock solution of the inhibitor was prepared in DMSO. From 10 mM stock solution, 250X concentrations of the inhibitor were made in DMSO. • 250X DMSO concentrations of the inhibitor were further diluted to 10X concentrations in 1X kinase buffer. • 2.5 µL (10X concentrations) of kinase buffer containing inhibitor was added to each well. • For the “Positive Control” and “Blank”, add 2.5 µL of kinase buffer containing DMSO (4%) was added. • The final DMSO concentration in the well was 0.4 %.
4) Preparation of the enzyme solution: • Thaw PARP1 enzyme on ice. Upon first thaw, briefly spin tube containing enzyme to recover full content of the tube. Calculate the amount of PARP1 required for the assay and dilute enzyme to 2.0 ng/µL with 1x PARP buffer. • Initiate reaction by adding 10 µL of diluted PARP1 enzyme to the wells designated “Positive Control” and “Test Inhibitor”. • To the wells designated as “Blank”, add 10 µL of 1X PARP buffer. • Centrifuge the plate at 1000 rpm for 30 seconds and incubate at room temperature for 60 min. • Discard the reaction mixture after 1 hour, and wash plate three times with 100 µL PBST buffer and tap plate onto clean paper towel as described above.
1) Preparation of Streptavidin-HRP: • Dilute Streptavidin-HRP 1:50 in Blocking buffer. • Add 25 µL of diluted Streptavidin-HRP to each well. Incubate for 30 min. at room temperature. • Wash three times with 100 µL PBST buffer and tap plate onto clean paper towel as above as described above.
2) Preparation of ECL substrate: • Just before use, mix on ice equal amounts of ELISA ECL Substrate A and ELISA ECL Substrate B and add 50 µL per well. • Immediately read the plate in microtiter-plate in Chemiluminescence setting. The “Blank” value is subtracted from all other values.

PARP2 = PARP2 (Homo sapiens, UniProt Q9UGN5); assay: PARP enzyme assay (PARP2); type: biochemical
Text: Step 2: Ribosylation Reaction

PARP1, sequence (P09874 whole entry, species assumed): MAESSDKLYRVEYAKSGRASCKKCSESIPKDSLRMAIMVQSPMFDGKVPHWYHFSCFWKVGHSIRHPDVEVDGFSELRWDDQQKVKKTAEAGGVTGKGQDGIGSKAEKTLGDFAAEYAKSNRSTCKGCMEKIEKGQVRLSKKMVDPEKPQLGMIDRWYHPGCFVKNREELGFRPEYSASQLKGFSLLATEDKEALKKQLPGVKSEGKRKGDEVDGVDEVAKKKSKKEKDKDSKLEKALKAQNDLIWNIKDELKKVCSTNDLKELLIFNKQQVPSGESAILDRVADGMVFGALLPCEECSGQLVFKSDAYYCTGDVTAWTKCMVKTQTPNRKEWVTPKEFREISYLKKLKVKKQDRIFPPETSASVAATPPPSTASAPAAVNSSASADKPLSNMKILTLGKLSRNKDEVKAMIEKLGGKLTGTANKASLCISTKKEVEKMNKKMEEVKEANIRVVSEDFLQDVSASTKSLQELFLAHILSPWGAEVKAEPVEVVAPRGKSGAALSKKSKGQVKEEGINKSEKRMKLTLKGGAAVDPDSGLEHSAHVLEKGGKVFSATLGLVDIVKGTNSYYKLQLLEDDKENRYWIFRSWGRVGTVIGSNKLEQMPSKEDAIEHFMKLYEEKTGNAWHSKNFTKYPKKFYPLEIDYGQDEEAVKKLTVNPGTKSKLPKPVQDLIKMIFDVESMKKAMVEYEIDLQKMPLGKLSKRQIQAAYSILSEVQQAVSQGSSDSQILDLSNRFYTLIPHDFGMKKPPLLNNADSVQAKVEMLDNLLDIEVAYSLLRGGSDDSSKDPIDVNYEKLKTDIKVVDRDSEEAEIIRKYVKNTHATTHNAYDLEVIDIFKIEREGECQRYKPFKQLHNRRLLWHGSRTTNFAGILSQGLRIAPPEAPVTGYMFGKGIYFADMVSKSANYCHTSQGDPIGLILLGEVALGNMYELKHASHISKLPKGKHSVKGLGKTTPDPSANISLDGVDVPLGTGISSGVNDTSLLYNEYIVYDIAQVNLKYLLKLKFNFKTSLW
PARP2, sequence (Q9UGN5 whole entry, species assumed): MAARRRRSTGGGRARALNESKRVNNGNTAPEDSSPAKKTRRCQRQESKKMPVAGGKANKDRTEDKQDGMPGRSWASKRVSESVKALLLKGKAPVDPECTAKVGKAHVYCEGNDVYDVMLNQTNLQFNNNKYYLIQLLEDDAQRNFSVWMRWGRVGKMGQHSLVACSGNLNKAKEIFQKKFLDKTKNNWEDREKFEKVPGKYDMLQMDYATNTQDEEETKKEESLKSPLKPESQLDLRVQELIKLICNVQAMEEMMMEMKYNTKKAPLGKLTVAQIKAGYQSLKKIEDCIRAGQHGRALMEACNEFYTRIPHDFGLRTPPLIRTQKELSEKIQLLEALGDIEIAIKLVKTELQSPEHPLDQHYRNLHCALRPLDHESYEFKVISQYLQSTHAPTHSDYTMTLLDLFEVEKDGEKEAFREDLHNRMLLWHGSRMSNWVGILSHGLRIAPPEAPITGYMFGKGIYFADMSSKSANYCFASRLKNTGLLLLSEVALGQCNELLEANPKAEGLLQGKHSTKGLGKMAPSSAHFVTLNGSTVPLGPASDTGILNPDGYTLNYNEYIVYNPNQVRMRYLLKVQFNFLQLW

Compound | melting point [°C] | inhibition at 0.01 µM (PARP1) [%] | inhibition at 0.1 µM (PARP1) [%] | IC50 (PARP2) [nM] | IC50 (PARP1) [nM] | % inhibition 10 nM (PARP1) | % inhibition 100 nM (PARP1)
CCC1(O)C(=O)N(c2cncc(Cc3n[nH]c(=O)c4ccccc34)c2)c2ccccc21 (centres unmarked) [Example 5, 4-((5-(3-Ethyl-3-hydroxy-2-oxoindolin-1-yl)pyridin-3-yl)methyl)phthalazin-1(2H)-one] | 117 to 120 | 75 to 100 | 75 to 100 | – | – | – | –
CC1(C)C(=O)N(c2cc(Cc3n[nH]c(=O)c4ccccc34)ccc2F)c2cccnc21 [Example 37, 4-(3-(3,3-Dimethyl-2-oxo-2,3-dihydro-1H-pyrrolo[3,2-b]pyridin-1-yl)-4-fluorobenzyl)phthalazin-1(2H)-one] | 114 to 117 | 25 to 50 | 75 to 100 | – | – | – | –
O=C1N(c2cncc(Cc3n[nH]c(=O)c4ccccc34)c2)c2ccccc2C12CC2 [Example 38, 1′-(5-((4-Oxo-3,4-dihydrophthalazin-1-yl)methyl)pyridin-3-yl)spiro[cyclopropane-1,3′-indolin]-2′-one] | 219 to 222 | 75 to 100 | 75 to 100 | – | – | – | –
CC1(O)C(=O)N(c2cccc(Cc3n[nH]c(=O)c4ccccc34)c2)c2cnccc21 (centres unmarked) [Example 31, 4-(3-(3-Hydroxy-3-methyl-2-oxo-2,3-dihydro-1H-pyrrolo[2,3-c]pyridin-1-yl)benzyl)phthalazin-1(2H)-one] | 133 to 136 | 25 to 50 | 75 to 100 | – | – | – | –
CC(=O)OC1(C)C(=O)N(c2cncc(Cc3n[nH]c(=O)c4ccccc34)c2)c2ccccc21 (centres unmarked) [Example 32, 3-Methyl-2-oxo-1-(5-((4-oxo-3,4-dihydrophthalazin-1-yl)methyl)pyridin-3-yl)indolin-3-yl acetate] | 237 to 239 | 75 to 100 | 75 to 100 | – | – | – | –
CC1(O)C(=O)N(c2cncc(Cc3n[nH]c(=O)c4ccc(F)cc34)c2)c2ccccc21 (centres unmarked) [Example 9, 6-Fluoro-4-((5-(3-hydroxy-3-methyl-2-oxoindolin-1-yl)pyridin-3-yl)methyl)phthalazin-1(2H)-one] | 132 to 135 | 75 to 100 | 75 to 100 | – | – | – | –
CC1(O)C(=O)N(c2cccc(Cc3n[nH]c(=O)c4ccccc34)c2)c2ccccc21 (centres unmarked) [Example 28, 4-(3-(3-Hydroxy-3-methyl-2-oxoindolin-1-yl)benzyl)phthalazin-1(2H)-one] | 240 to 243 | 75 to 100 | 75 to 100 | – | – | – | –
CC1(O)C(=O)N(c2cncc(Cc3n[nH]c(=O)c4ccccc34)c2)c2ccc(F)cc21 (centres unmarked) [Example 13, 4-((5-(5-Fluoro-3-hydroxy-3-methyl-2-oxoindolin-1-yl)pyridin-3-yl)methyl)phthalazin-1(2H)-one] | 116 to 120 | 75 to 100 | 75 to 100 | < 10 | < 10 | – | –
CC1(O)C(=O)N(c2cncc(Cc3n[nH]c(=O)c4cc(F)ccc34)c2)c2ccccc21 (centres unmarked) [Example 6, 7-Fluoro-4-((5-(3-hydroxy-3-methyl-2-oxoindolin-1-yl)pyridin-3-yl)methyl)phthalazin-1(2H)-one] | 133 to 136 | – | – | < 10 | – | – | –
CC1(O)C(=O)N(c2cc(Cc3n[nH]c(=O)c4cc(F)ccc34)ccc2F)c2ccccc21 (centres unmarked) [Example 29, 7-Fluoro-4-(4-fluoro-3-(3-hydroxy-3-methyl-2-oxoindolin-1-yl)benzyl)phthalazin-1(2H)-one] | 207 to 210 | 75 to 100 | 75 to 100 | – | – | – | –
COC1(C)C(=O)N(c2cncc(Cc3n[nH]c(=O)c4ccccc34)c2)c2ccccc21 (centres unmarked) [Example 30, 4-((5-(3-methoxy-3-methyl-2-oxoindolin-1-yl)pyridin-3-yl)methyl)phthalazin-1(2H)-one] | 207 to 210 | 25 to 50 | 75 to 100 | – | – | – | –
O=C1N(c2cncc(Cc3n[nH]c(=O)c4ccccc34)c2)c2ccccc2C1(O)C(F)(F)F (single isomer, unassigned; (+)) [Example 26, (+)-4-((5-(3-Hydroxy-2-oxo-3-(trifluoromethyl)indolin-1-yl)pyridin-3-yl)methyl)phthalazin-1(2H)-one] | 170 to 174 | – | – | – | – | A (A represents >75% to 100%) | A (A represents >75% to 100%)
CC1(O)C(=O)N(c2cncc(Cc3n[nH]c(=O)c4ccccc34)c2)c2cc(F)ccc21 (centres unmarked) [Example 16] | 125 to 128 | 75 to 100 | 75 to 100 | – | – | – | –
CC1(O)C(=O)N(c2cncc(Cc3n[nH]c(=O)c4cc(F)ccc34)c2)c2ccc(F)cc21 (centres unmarked) [Example 10, 7-Fluoro-4-((5-(5-fluoro-3-hydroxy-3-methyl-2-oxoindolin-1-yl)pyridin-3-yl)methyl)phthalazin-1(2H)-one] | 157 to 160 | 75 to 100 | 75 to 100 | – | < 10 | – | –
CC1(O)C(=O)N(c2cc(Cc3n[nH]c(=O)c4ccccc34)ccc2F)c2ccccc21 (centres unmarked) [Example 4, 4-(4-Fluoro-3-(3-hydroxy-3-methyl-2-oxoindolin-1-yl)benzyl)phthalazin-1(2H)-one] | 131 to 134 | 75 to 100 | 75 to 100 | – | – | – | –
CC1(C)C(=O)N(c2cc(Cc3n[nH]c(=O)c4ccccc34)ccc2F)c2ccccc21 [Example 34, 4-(3-(3,3-Dimethyl-2-oxoindolin-1-yl)-4-fluorobenzyl)phthalazine-1(2H)-one] | 129 to 132 | 75 to 100 | 75 to 100 | – | – | – | –
CC1(O)C(=O)N(c2cncc(Cc3n[nH]c(=O)c4cc(F)ccc34)c2)c2cc(F)ccc21 (centres unmarked) [Example 17, 7-Fluoro-4-((5-(6-fluoro-3-hydroxy-3-methyl-2-oxoindolin-1-yl)pyridin-3-yl)methyl)phthalazin-1(2H)-one] | 219 to 221 | 75 to 100 | 75 to 100 | – | – | – | –
O=C1Cc2ccccc2N1c1cc(Cc2n[nH]c(=O)c3ccccc23)ccc1F [Example 33, 4-(4-Fluoro-3-(2-oxoindolin-1-yl)benzyl)phthalazin-1(2H)-one] | 232 to 235 | 75 to 100 | 75 to 100 | – | – | – | –
O=C1N(c2cncc(Cc3n[nH]c(=O)c4ccccc34)c2)c2ccccc2C1(O)C(F)(F)F (single isomer, unassigned; (-)) [Example 27, (-)-4-((5-(3-Hydroxy-2-oxo-3-(trifluoromethyl)indolin-1-yl)pyridin-3-yl)methyl)phthalazin-1(2H)-one] | 210 to 214 | – | – | – | – | C (C represents >25% to ≤50%) | C (C represents >25% to ≤50%)
CC1(C)C(=O)N(c2cncc(Cc3n[nH]c(=O)c4ccccc34)c2)c2ccccc21 [Example 35, 4-((5-(3,3-Dimethyl-2-oxoindolin-1-yl)pyridin-3-yl)methyl)phthalazin-1(2H)-one] | 221 to 224 | 75 to 100 | 75 to 100 | – | – | – | –
CC1(C)C(=O)N(c2cncc(Cc3n[nH]c(=O)c4ccccc34)c2)c2cccnc21 [Example 36, 4-((5-(3,3-Dimethyl-2-oxo-2,3-dihydro-1H-pyrrolo[3,2-b]pyridin-1-yl)pyridin-3-yl)methyl)phthalazin-1(2H)-one] | 242 to 245 | 25 to 50 | 75 to 100 | – | – | – | –
